Several values for one entry are separate records, joined by “and”; a condition that tells them apart may be missing. Identical values can stand only once.
What was measured:
Assay type in all cases: in vivo, rat
osteopontin [1] = test: Assay B: osteopontin mRNA by quantitative RT-PCR (Taqman); conditions: aldosterone/salt-treated rats receiving vehicle
Protocol: (§1) Assay B: In Vivo Aldosterone Infusion Model Determination of osteopontin and COX-2 was performed by quantitative RT-PCR (Taqman). Osteopontin was also identified in the heart by immunohistochemistry.

COX-2 = test: Assay B: COX-2 mRNA by quantitative RT-PCR (Taqman)
Protocol: as §1

[2] = test system: Transforming growth factor beta 1 (TGFβ1); test: Assay C: TGFβ1 mRNA, TaqMan; conditions: aldosterone+salt, 7, 14, 30 days
Protocol: The procedure of Assay B was expanded upon in a further study. […] Myocardial tissue from animals in each treatment group was examined after 7, 14, or 30 days of treatment.
Potassium chloride supplementation was added to the saline solution in order to prevent the potential hypokalemia associated with aldosterone excess.
Treatment At the time of the surgery, an Alzet 2002 osmotic minipump (Alza Corp., Palo Alto, Calif.) containing either vehicle (9% ethanol/87% propylene glycol/4% dH2O) or 1.0 mg/mL d-aldosterone (Sigma Chemical, St. Louis, Mo.) was inserted subcutaneously at the nape of the neck. Aldosterone was administered at a dose of 0.75 µg/hour. […]
The fluorogenic 5′-nuclease assay (TaqMan PCR) using Applied Biosystems' 7700 Sequence Detection System (Applied Biosystems, Foster City, Calif.) allowed for real time detection/quantitation of a specific gene by monitoring the increase in fluorescence of a gene-specific, dye-labeled oligonucleotide probe. […] When the probe was annealed to the target gene, fluorescence of 6FAM was prevented by the close proximity of TAMRA. The exonuclease activity of Taq polymerase released the dyes from the oligonucleotide probe by displacing the probe from the target sequence resulting in fluorescence excitation in direct proportion to the amount of target message present. […]

[3] = Assay A: angiotensin II infusion model, urinary Na+/K+ ratio (natriuresis index); conditions: Wistar rats, 1% NaCl, angiotensin II 25 ng/min sc; eplerenone 100 mpk
Source text: Electrolyte excretion. The ratio between daily urinary Na^+ excretion and urinary K^+ excretion (U Na^+/K^+ ratio) was used as an index for natriuresis. Urinary Na^+/K^+ ratio was similar in all groups before the start of the treatments, and increased similarly in all animals upon initiation of the high salt diet.

osteopontin [4] = test: Assay B: serum osteopontin levels at 28 days; conditions: NaCl 1% drinking rats with aldosterone and eplerenone
[5] = Assay C: myocardial hydroxyproline colorimetric assay; conditions: 7 days of treatment; myocardium; aldosterone + salt alone or with eplerenone 100 mg/kg/day; individual rats and group Mean
Protocol: The procedure of Assay B was expanded upon in a further study. […] Myocardial tissue from animals in each treatment group was examined after 7, 14, or 30 days of treatment. […] Lesions were preceded by the expression and progressive upregulation of proinflammatory molecules. […] Prior to surgery the animals were individually weighed and placed in one of the following groups: […] Potassium chloride supplementation was added to the saline solution in order to prevent the potential hypokalemia associated with aldosterone excess. Treatment At the time of the surgery, an Alzet 2002 osmotic minipump (Alza Corp., Palo Alto, Calif.) containing either vehicle (9% ethanol/87% propylene glycol/4% dH2O) or 1.0 mg/mL d-aldosterone (Sigma Chemical, St. Louis, Mo.) was inserted subcutaneously at the nape of the neck. Aldosterone was administered at a dose of 0.75 µg/hour. […] Animals were sacrificed from each group (n=8-13) after 7, 14, or 30 days of treatment. Myocardial hydroxyproline concentration was measured by a colorimetric assay that quantifies the reaction between oxidized hydroxyproline, and p-dimethylaminobenzaldehyde as described previously (4). […] Samples were incubated at 60° C. for 30 min, cooled to room temperature, and absorbance was monitored at 558 nm. Hydroxyproline content was quantitated from a freshly prepared standard curve of trans-4-hydroxy-L-proline (Sigma, St. Louis, Mo.). […]

[6] = Urinary protein excretion in angiotensin II infused, captopril treated stroke prone spontaneously hypertensive rats; conditions: captopril treated stroke prone spontaneously hypertensive rats (FIG. 35)
[7] = Histopathological scores for renal injury in angiotensin II infused, captopril treated stroke prone spontaneously hypertensive rats; conditions: captopril treated stroke prone spontaneously hypertensive rats (FIG. 36)

Structure (SMILES) | Upregulation of osteopontin mRNA vs control (osteopontin [1]) | Increase of COX-2 mRNA expression vs control (COX-2; aldosterone/salt+vehicle treatment) | COX-2 relative mRNA expression in the heart (COX-2; aldosterone/salt-treated rats, 4 weeks, vehicle or eplerenone 100 mpk p.o, control 1.2±0.12) | TGF-β mRNA levels [2] | Urinary Na+/K+ ratio (index for natriuresis) [3] | Circulating (serum) osteopontin levels (osteopontin [4]) | Hydroxyproline [5] | Urinary protein excretion [6] | Histopathological scores for renal injury [7]
C[C@]12CCC(=O)C=C1CC[C@@H]1[C@@H]2[C@@H](O)C[C@]2(C=O)[C@@H](C(=O)CO)CC[C@@H]12 [aldosterone] | 7 fold | 3 fold | 3.7±0.46 | not upregulated at any of the time points examined | – | – | – | – | –
COC(=O)[C@@H]1CC2=CC(=O)CC[C@]2(C)[C@@]23O[C@@H]2C[C@@]2(C)[C@@H](CC[C@@]24CCC(=O)O4)[C@H]13 [eplerenone] | – | – | – | – | did not produce a significant diuretic or natriuretic effect | marked decrease in circulating osteopontin levels | 4.08 µg/mg and 2.41 µg/mg | inhibition of increased urinary protein excretion | reduction in histopathological scores for renal injury

— patent publication US20040037806A1, “Aldosterone blocker therapy to prevent or treat inflammation-related disorders” (Pharmacia Corporation, priority 2002, published 2004)
